# Data as given in EP0231622B1, “Inhibition of the 5-lipoxygenase pathway” (priority 1985, dated 1987).
# Marks after values point to notes of the source that are not given here.
# Columns and labels:
# [1] = system: Carrageenan-Induced Cellular Infiltration; assay: Carrageenan-induced air pouch inflammation; format: in vivo, Lewis rats; conditions: 100 mg/kg; 3 hours after carrageenan
# Excerpt: (§1) In the following Examples where mice were used, they were male Balb/c mice (20-28 g), and where rats were used, they were male Lewis rats (180-210 g). All mice and rats were obtained from Charles River Breeding Laboratories, Kingston, N.Y. Within a single experiment, mice and rats were sex and age matched.
# (§2) The compounds of Formula (IA) were used either as the free base or in the appropriate salt form. Levamisole was used as the hydrochloride salt. The compounds were homogenized in 0.5% tragacanth. Compounds were administered by gavage at the indicated dose in a final volume of 10 ml/kg. Nordihydroguaiaretic acid (NDGA) was solubilized in dimethylacetamide and diluted with olive oil for subcutaneous administration.
# Rats were shaved on the dorsal flank, and then injected subcutaneously one day later with 20 ml of air to form a defined pouch, by the method of Sedgwick et al., J. Pathology, 141, 483-495 (1983). The air pouch was reinflated as necessary over the next 6 days. To assay anti-inflammatory activity, animals were treated orally with test compound or vehicle (10 ml/kg) one hour before injection of 2.0 ml of a 2.0% carrageenan suspension containing 200 units/ml penicillin and 100 »g/ml streptomycin into the air pouch. In other experiments, 5 ml of 0.1% arachidonic acid in 0.2 M bicarbonate buffer was injected two hours after drug treatment. Animals were sacrificed using CO₂ three hours after instillation of irritant. The exudate was then aspirated from the pouch and neutrophil count and differential cell count were measured.
# [2] = system: Arachidonic Acid-Induced Rat Paw Edema; assay: Arachidonic acid-induced rat paw swelling; format: in vivo, Lewis rats; conditions: 100 mg/kg, read at 2 hours
# Excerpt: as §1, §2
# [3] = system: Arachidonic Acid-Induced Inflammation of the Mouse Ear; assay: Arachidonic acid-induced mouse ear inflammation; format: in vivo, Balb/c mice
# Excerpt: as §1, §2
# Arachidonic acid in acetone (2 mg/20 ul) was applied to the inner surface of the left ear. The thickness of both ears was then measured with a dial micrometer one hour after treatment, and the data were expressed as the change in thickness (10⁻³ cm) between treated and untreated ears.
# Test compounds were given orally in 0.5% tragacanth at the times indicated in the text prior to the topical application of arachidonic acid.
# Parenteral administration of compound was accomplished by subcutaneous injection of solution as indicated.
smiles,measurement,setting,value
"Fc1ccc(-c2nc3n(c2-c2ccncc2)CCS3)cc1 [Compound 1, 5-(4-pyridyl)-6-(4-fluorophenyl)-2,3-dihydroimidazo[2,1-b]thiazole]",Cellular Infiltrate (Total x 10⁻⁶) MN,[1],5.5 ± 3.8^e x 10⁻⁶
same,Cellular Infiltrate (Total x 10⁻⁶) PMN,[1],2.6 ± 1.3^d x 10⁻⁶
same,Exudate Volume,[1],1.0 ± 0.9 mL
same,Change in Paw Volume,[2]; one hour before arachidonic acid,0.06 ± 0.05 mL
same,(% Inhibition) of change in paw volume,[2],78%
same,ED50,"[3]; Mus musculus, po, 1 hour after 2 mg of arachidonic acid to the ear, read-out: ED₅₀ (inhibition of the edematous response of the ear)",19.5 mg/kg
same,% Change,"[3]; Table 7, 50 mg/kg, p.o.",-67^b %
same,Increase in Ear Thickness at 1 Hour (x 10⁻³ cm),"[3]; Table 7, 50 mg/kg, p.o., 15 minutes before arachidonic acid",10.0 ± 1.5 x 10⁻³ cm
